Results on 20 compounds are retold here after US7405220B2, “Pyrazolopyrimidines” (Hoffmann-La Roche Inc., priority 2004, dated 2008).

For one experiment, the target named is human cyclin E-Cdk2 (Homo sapiens, UniProt P24941). In words: Cdk2 FlashPlate kinase assay (Rb phosphorylation). The format is biochemical. The following applies: recombinant cyclin E-Cdk2, Rb substrate, 1 μM ATP. As to the method:
(§1) To determine inhibition of Cdk4, Cdk2 and Cdk1 activity, kinase assays were conducted using FlashPlate™ assays (NEN™-Life Science Products). FlashPlate assays were performed using recombinant human cyclin B-Cdk1, human cyclin E-Cdk2 or human cyclin D1-Cdk4 complexes. GST-cyclinE (GST-cycE), Cdk2, GST-cyclinB (GST-cycB), Cdk1, GST-Cdk4 and cyclin D1 (cycD1) cDNA clones in baculovirus vectors were provided by Dr. W. Harper at the Baylor College of Medicine, Houston, Tex. Proteins were co-expressed in High Five™ insect cells and the complex was purified on glutathione Sepharose resin (Pharmacia, Piscataway, N.J.) as previously described (Harper, J. W. et al. Cell 1993, 75, 805-816). A 6×-Histidine tagged truncated form of retinoblastoma (Rb) protein (amino acid 386-928) was used as the substrate for the cycD1-Cdk4, cycB-Cdk1 and the cycE-Cdk2 assays (the expression plasmid was provided by Dr. Veronica Sullivan, Department of Molecular Virology, Roche Research Centre, Welwyn Garden City, United Kingdom). The Rb protein is a natural substrate for phosphorylation by Cdk4, Cdk2 and Cdk1 (see Herwig and Strauss Eur. J. Biochem. Vol. 246 (1997) pp. 581-601 and the references cited therein).
(§2) The expression of the 62 Kd protein was under the control of an IPTG inducible promoter in an M15 E. coli strain. Cells were lysed by sonication and purification was carried out by binding lysates at pH 8.0 to a Ni-chelated agarose column pretreated with 1 mM imidazole. The resin was then washed several times with incrementally decreasing pH buffers to pH 6.0, and eluted with 500 mM imidazole. Eluted protein was dialysed against 20 mM HEPES pH 7.5, 30% glycerol, 200 mM NaCl, and 1 mM DTT. Purified Rb fusion protein stocks were quantitated for protein concentration, aliquoted, and stored at −70° C.
(§3) For all three kinase assays reported herein, 96-well FlashPlates were coated with Rb protein at 10 μg/ml, using 100 μl per well. Plates were incubated at 4° C. overnight or at room temperature for 3 hours on a shaker. To control for nonspecific phosphorylation, one row of wells was coated with 100 μl/well coating buffer (20 mM HEPES, 0.2 M NaCl). Plates were then washed twice with wash buffer (0.01% Tween 20 in phosphate-buffered saline). Compounds to be tested (“test compounds”) were added to the wells at 5× final concentration. Reactions were initiated by immediate addition of 40 μl reaction mix (25 mM HEPES, 20 mM MgCl2, 0.002% Tween 20, 2 mM DTT, 1 μM ATP, 4 nM 33P-ATP) and a sufficient amount of enzyme to give counts that were at least 10-fold above background. Plates were incubated at room temperature on a shaker for 30 minutes. Plates were washed four times with the wash buffer, sealed, and counted on the TopCount scintillation counter (Packard Instrument Co., Downers Grove, Ill.]. The percent inhibition of Rb phosphorylation, which is a measure of the inhibition of Cdk activity, was determined according to the following formula: […]
(§4) where “test compound” refers to the average counts per minute of the test duplicates, “nonspecific” refers to the average counts per minute when no CyclinD/Cdk4, etc., was added, and “total” refers to the average counts per minute when no compound was added. The IC50 value is the concentration of test compound that reduces by 50% the protein-kinase induced incorporation of the radiolabel under the test conditions described.

The target of a further experiment is human cyclin D1-Cdk4 (Homo sapiens, UniProt P11802). Put plainly: Cdk4 FlashPlate kinase assay (Rb phosphorylation). The class given is biochemical. The following applies: recombinant cyclin D1-Cdk4, Rb substrate, 1 μM ATP. The protocol: as §1, §2, §3, §4
Chain of human cyclin D1-Cdk4 (P11802 whole entry): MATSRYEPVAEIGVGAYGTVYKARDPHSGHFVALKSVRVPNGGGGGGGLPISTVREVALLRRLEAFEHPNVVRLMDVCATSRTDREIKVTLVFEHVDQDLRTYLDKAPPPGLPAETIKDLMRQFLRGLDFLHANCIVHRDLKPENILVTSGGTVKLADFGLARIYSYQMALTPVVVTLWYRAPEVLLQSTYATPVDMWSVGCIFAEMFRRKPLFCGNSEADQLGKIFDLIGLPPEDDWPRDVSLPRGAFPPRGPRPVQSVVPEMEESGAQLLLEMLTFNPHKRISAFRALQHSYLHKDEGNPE
Chain of human cyclin D1-Cdk4 (P24385 whole entry partner): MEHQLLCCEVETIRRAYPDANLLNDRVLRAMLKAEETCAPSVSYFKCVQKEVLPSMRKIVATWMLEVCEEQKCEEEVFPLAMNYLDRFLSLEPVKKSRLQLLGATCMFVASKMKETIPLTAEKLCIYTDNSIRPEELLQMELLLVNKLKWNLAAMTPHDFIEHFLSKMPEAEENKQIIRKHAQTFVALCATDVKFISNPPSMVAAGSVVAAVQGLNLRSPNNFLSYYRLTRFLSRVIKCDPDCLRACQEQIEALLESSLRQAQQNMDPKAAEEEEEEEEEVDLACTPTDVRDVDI
The test system of experiment [1] is HCT116, a colorectal carcinoma cell line. In words: Tetrazolium dye (MTT) proliferation assay. The format is cell-based. To be noted: Homo sapiens, HCT-116; HCT116 cells. The protocol:
Proliferation was evaluated by the tetrazolium dye assay according to the procedure of Denizot and Lang (Denizot, F. and Lang, R. J Immunol Methods 1986, 89, 271-277). The cell line used was HCT116, a colorectal carcinoma cell line obtained from the American Type Cell Culture Collection (ATCC; Rockville, Md.). The cells were grown in McCoy's 5A medium supplemented with 10% FCS and L-glutamine.
Cells were plated at the appropriate seeding density to give logarithmic growth over the course of the assay in a 96-well tissue culture plate. Plates were incubated overnight at 37° C. in a humidified incubator with 5% CO2. The next day, test compounds were serially diluted to four times the final concentration in the appropriate medium containing 1.2% DMSO. One-fourth final volume of each dilution was added in duplicate to the plates containing cells. The same volume of 1.2% DMSO in medium was added to a row of “control wells” such that the final concentration of DMSO in each well was 0.3%. Wells to which no cells were added served as the “blank.” Wells to which no inhibitor was added served as “no inhibitor control.” The plates were) returned to the incubator, and at set time points (determined by their growth curves) plates were analyzed as described below.
3-(4,5-dimethylthiazole-2-yl)-2,5-diphenyl-2H-tetrazolium bromide (thiazolyl blue; MTT; Sigma) was added to each well to yield a final concentration of 1 mg/ml. Plates were returned to the incubator for 2.5-3 hours at 37° C. The MTT-containing medium was removed and the resulting formazan metabolite was solubilized in 100% ethanol with shaking for 15 minutes at room temperature. Absorbance readings were taken in a microtiter plate reader (Dynatech and Molecular Devices plate readers were used interchangeably) at a wavelength of 570 nm with a 650 nm reference. Percent inhibition (% INH) is calculated by subtracting the absorbance of the blank well from all wells, then subtracting the ratio of the average absorbance of each test duplicate (SAVE) by the average of the controls (CAVE) from 1.00. The final number is then multiplied by 100 (% INH=(1.00−SAVE/CAVE)×100). The concentration at which 50% inhibition of cell proliferation is obtained (the IC50) is determined from the linear regression of a plot of the logarithm of the concentration versus percent inhibition.

For the next experiment, the target named is human cyclin B-Cdk1 (Homo sapiens, UniProt P06493). Put plainly: Cdk1 FlashPlate kinase assay (Rb phosphorylation). The class given is biochemical. To be noted: recombinant cyclin B-Cdk1, Rb substrate, 1 μM ATP. As to the method:
as §1, §2, §3, §4

Chain of human cyclin B-Cdk1 (P06493 whole entry): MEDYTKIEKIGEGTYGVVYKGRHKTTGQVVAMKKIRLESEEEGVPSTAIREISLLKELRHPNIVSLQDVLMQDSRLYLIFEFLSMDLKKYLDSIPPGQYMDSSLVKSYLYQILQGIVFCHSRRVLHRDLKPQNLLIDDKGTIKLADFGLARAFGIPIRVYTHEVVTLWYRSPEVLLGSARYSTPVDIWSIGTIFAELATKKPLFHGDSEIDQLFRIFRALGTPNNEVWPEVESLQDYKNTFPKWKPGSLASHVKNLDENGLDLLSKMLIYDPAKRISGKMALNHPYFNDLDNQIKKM
Chain of human cyclin B-Cdk1 (P14635 whole entry partner): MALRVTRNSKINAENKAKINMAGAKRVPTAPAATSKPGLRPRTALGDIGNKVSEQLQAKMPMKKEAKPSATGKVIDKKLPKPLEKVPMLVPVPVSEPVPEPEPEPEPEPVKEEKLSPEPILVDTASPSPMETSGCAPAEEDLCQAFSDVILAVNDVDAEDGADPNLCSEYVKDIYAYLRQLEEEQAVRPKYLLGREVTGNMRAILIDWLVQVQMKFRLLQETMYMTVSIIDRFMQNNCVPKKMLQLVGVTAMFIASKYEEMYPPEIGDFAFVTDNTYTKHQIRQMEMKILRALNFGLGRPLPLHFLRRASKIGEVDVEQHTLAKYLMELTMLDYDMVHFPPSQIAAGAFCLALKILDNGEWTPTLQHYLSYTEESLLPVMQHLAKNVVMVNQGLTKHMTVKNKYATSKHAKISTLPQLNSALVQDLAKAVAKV

What is called IC50 is the concentration needed to halve the response being measured. Consider `COc1ccccc1-c1n[nH]c2nc(Nc3ccccc3)ncc12` [Example 38, [3-(2-Methoxy-phenyl)-1H-pyrazolo[3,4-d]pyrimidin-6-yl]-phenyl-amine], for which the IC50 on human cyclin E-Cdk2 amounted to 278 nM.

In the case of `Fc1ccc(Nc2ncc3c(-c4c(F)cccc4F)n[nH]c3n2)cc1` [Example 33, [3-(2,6-Difluoro-phenyl)-1H-pyrazolo[3,4-d]pyrimidin-6-yl]-(4-fluoro-phenyl)-amine], the half-inhibitory concentration (IC50) at human cyclin D1-Cdk4 and on human cyclin E-Cdk2 was 2500 nM in each case.

Take `COc1ccc(Nc2ncc3c(-c4ccccc4OC)n[nH]c3n2)cc1` [Example 39, (4-Methoxy-phenyl)-[3-(2-methoxy-phenyl)-1H-pyrazolo[3,4-d]pyrimidin-6-y]-amine; compound with trifluoro-acetic acid]: the concentration for half-maximal inhibition (IC50) on human cyclin E-Cdk2 came out at 278 nM.

In the case of `CCOC(=O)N1CCC(Nc2ncc3c(-c4cccc(F)c4)n[nH]c3n2)CC1` [Example 43, 4-[3-(3-Fluoro-phenyl)-1H-pyrazolo[3,4-d]pyrimidin-6-ylamino]-piperidine-1-carboxylic acid ethyl ester; compound with trifluoro-acetic acid], the IC50 on human cyclin E-Cdk2 worked out at 278 nM.

With `COc1ccccc1Nc1ncc2c(-c3c(F)cccc3F)n[nH]c2n1` [Example 40, [3-(2,6-Difluoro-phenyl)-1H-pyrazolo[3,4-d]pyrimidin-6-yl]-(2-methoxy-phenyl)-amine; compound with trifluoro-acetic acid], the IC50 at human cyclin E-Cdk2 amounted to 278 nM.

Consider `COc1ccccc1-c1n[nH]c2nc(NCCCN(C)C)ncc12` [Example 36, N′-[3-(2-Methoxy-phenyl)-1H-pyrazolo[3,4-d]pyrimidin-6-yl]-N,N-dimethyl-propane-1,3-diamine], for which, at human cyclin E-Cdk2, the concentration for half-maximal inhibition (IC50) turned out to be 278 nM.

For the compound `COc1ccc(F)cc1-c1n[nH]c2nc(N[C@H]3CCN(S(C)(=O)=O)C[C@@H]3O)ncc12` [Example 27], the IC50 on human cyclin D1-Cdk4 is 4 nM; on human cyclin E-Cdk2, 275 nM; in experiment [1], 1700 nM.

Turning to `CS(=O)(=O)N1CCC(Nc2ncc3cn[nH]c3n2)CC1` [Example 19], the results for the IC50 (on human cyclin E-Cdk2; on human cyclin B-Cdk1; in experiment [1]) were 33 nM, 231 nM and 9160 nM, respectively.

With `CS(=O)(=O)N1CCC(Nc2ncc3c(-c4c(F)cccc4F)n[nH]c3n2)CC1` [Example 29, [3-(2,6-Difluoro-phenyl)-1H-pyrazolo[3,4-d]pyrimidin-6-yl]-(1-methanesulfonyl-piperidin-4-yl)-amine], the figures for the IC50 (at human cyclin E-Cdk2; at human cyclin B-Cdk1; in experiment [1]) were 278 nM, 867 nM and 32000 nM, respectively.

Consider `COc1ccccc1-c1n[nH]c2nc(Nc3ccc(S(N)(=O)=O)cc3)ncc12` [Example 32, 4-[3-(2-Methoxy-phenyl)-1H-pyrazolo[3,4-d]pyrimidin-6-ylamino]-benzenesulfonamide; compound with trifluoro-acetic acid], for which the values for the IC50 at human cyclin D1-Cdk4 and at human cyclin E-Cdk2 were 36 nM and 9 nM, respectively.

As for `COc1ccccc1-c1n[nH]c2nc(NCCCCCN(C)C)ncc12` [Example 37, N-[3-(2-Methoxy-phenyl)-1H-pyrazolo[3,4-d]pyrimidin-6-yl]-N,N-dimethyl-pentane-1,5-diamine; compound with trifluoro-acetic acid], the half-maximal inhibitory concentration (IC50) at human cyclin E-Cdk2 was found to be 278 nM.

`CS(=O)(=O)N1CCC(Nc2ncc3c(-c4ccccc4)n[nH]c3n2)CC1` [Example 30, (1-Methanesulfonyl-piperidin-4-yl)-(3-phenyl-1H-pyrazolo[3,4-d]pyrimidin-6-yl)-amine]: the IC50 on human cyclin D1-Cdk4 came to 128 nM; on human cyclin E-Cdk2, 179 nM; at human cyclin B-Cdk1, 262 nM; in experiment [1], 3930 nM.

As for `COc1ccccc1-c1n[nH]c2nc(NCCO)ncc12` [Example 34, 2-[3-(2-Methoxy-phenyl)-1H-pyrazolo[3,4-d]pyrimidin-6-ylamino]-ethanol], the IC50 at human cyclin D1-Cdk4 is 344 nM; at human cyclin E-Cdk2 it was 594 nM.

`COc1ccc(F)cc1-c1n[nH]c2nc(NC3CCN(S(C)(=O)=O)CC3)ncc12` [Example 25, [3-(5-Fluoro-2-methoxy-phenyl)-1H-pyrazolo[3,4-d]pyrimidin-6-yl]-(1-methanesulfonyl-piperidin-4-yl)-amine]: the concentration for half-maximal inhibition (IC50) is 42 nM on human cyclin D1-Cdk4 and 77 nM on human cyclin E-Cdk2.

As to `COc1ccccc1-c1n[nH]c2nc(NCCCCCN)ncc12` [Example 35, [3-(2-Methoxy-phenyl)-1H-pyrazolo[3,4-d]pyrimidin-6-yl]-pentane-1,5-diamine; compound with trifluoro-acetic acid], the results for the IC50 at human cyclin D1-Cdk4 and at human cyclin E-Cdk2 were 1120 nM and 1850 nM, respectively.

On to `Cc1n[nH]c2nc(NCCO)ncc12` [Example 42, 2-(3-Methyl-1H-pyrazolo[3,4-d]pyrimidin-6-ylamino)-ethanol; compound with trifluoro-acetic acid], for which the half-maximal inhibitory concentration (IC50) on human cyclin E-Cdk2 stood at 278 nM.

Turning to `Cc1n[nH]c2nc(Nc3ccc(S(N)(=O)=O)cc3)ncc12` [Example 41, 4-(3-Methyl-1H-pyrazolo[3,4-d]pyrimidin-6-ylamino)-benzenesulfonamide; compound with trifluoro-acetic acid], the half-maximal inhibitory concentration (IC50) at human cyclin E-Cdk2 was determined as 24 nM.

Turning to `COc1ccc(F)c(F)c1-c1n[nH]c2nc(NC3CCN(S(C)(=O)=O)CC3)ncc12` [Example 16, [3-(2,3-Difluoro-6-methoxy-phenyl)-1H-pyrazolo[3,4-d]pyrimidin-6-yl]-(1-methanesulfonyl-piperidin-4-yl)-amine], the IC50 on human cyclin D1-Cdk4 stood at 41 nM; on human cyclin E-Cdk2, 244 nM; in experiment [1], 4500 nM.

Consider `Cc1n[nH]c2nc(NC3CCN(C)CC3)ncc12` [Example 23], for which the results for the half-maximal inhibitory concentration (IC50) at human cyclin E-Cdk2 and on human cyclin B-Cdk1 were 278 nM and 1460 nM, respectively.

For `COc1ccccc1-c1n[nH]c2nc(NC3CCN(S(C)(=O)=O)CC3)ncc12` [Example 28], the concentration for half-maximal inhibition (IC50) at human cyclin D1-Cdk4 came to 14 nM; on human cyclin E-Cdk2, 18 nM; at human cyclin B-Cdk1, 107 nM; in experiment [1], 1200 nM.
